How the values were obtained:
[1] = target: NEK7 (Homo sapiens, UniProt Q8TDX7); experiment: DARTS; format: cell-based
[2] = target: NEK7 (Mus musculus, UniProt Q9ES74); experiment: CETSA in BMDMs and DARTS in BMDM lysate; format: cell-based
Sequence of NEK7 (Mus musculus, UniProt Q9ES74) (Q9ES74 whole entry): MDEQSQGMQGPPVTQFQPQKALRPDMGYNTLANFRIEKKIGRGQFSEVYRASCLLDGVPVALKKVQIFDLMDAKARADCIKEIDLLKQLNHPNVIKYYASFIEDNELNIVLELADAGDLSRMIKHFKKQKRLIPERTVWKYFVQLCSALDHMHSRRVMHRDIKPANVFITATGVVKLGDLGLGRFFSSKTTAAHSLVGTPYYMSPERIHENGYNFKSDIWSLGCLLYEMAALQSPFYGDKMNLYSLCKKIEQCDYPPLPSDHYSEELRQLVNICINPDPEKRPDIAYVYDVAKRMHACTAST

Sequence of NEK7 (Homo sapiens, UniProt Q8TDX7) (Q8TDX7 whole entry, looked up): as the sequence (Q9ES74 whole entry) above, with T14P, S52A, D150E, I273M, I285V, A286T, T302S counted along it

## CN1CCN(c2ccc(C(=O)Nc3n[nH]c4ccc(Cc5cc(F)cc(F)c5)cc34)c(NC3CCOCC3)c2)CC1 [ENB, entrectinib]
[1]
  DARTS (pronase) in lysate of HEK293T cells overexpressing WT or mutant NEK7 (200): R121A, but not I40A mutation, abolished NEK7 binding to ENB (Figure 4D), suggesting that ENB binds to R121 of NEK7
[2]
  CETSA in BMDMs and DARTS in BMDM lysate (200 uM ENB): ENB significantly enhanced the thermal stability of NEK7 even at higher temperatures compared with the DMSO-treated group

From paper PMC10772347 (Cell Reports Medicine, 2023)
